System: STZ-induced diabetes model mouse (STZ-mouse)
Experiment: Blood glucose level in STZ-induced diabetes model mouse (Test Example 4-1)
Format: in vivo, CD-1 (ICR) mice
Conditions: STZ-mice, Day 14 after the treatment
Description: The “complex containing an active substance” was injected into the intestine of a STZ-induced diabetes model mouse (STZ-mouse) together with the “assistant agent for assisting introduction into a living body”, and then measurement of a “change in plasma glucose (blood glucose level) (Test Example 4-1)” and “measurement of the plasma insulin level (Test Example 4-2)” at the end of the treatment were performed.
“Compositions containing an active substance” below were prepared by mixing the above-described “active substance complex (Bio3 formulation)” with the respective “assistant agents for assisting introduction into a living body” above, and were then used in the experiments.
CD-1 (ICR) mice (male, 4 weeks old) purchased from Charles River Japan were preliminarily kept for 1 week before experiment.
Procedure for Producing Disease Model Mice STZ (40 mg/kg) prepared in a citrate buffer (100 mmol/L, pH 4.5) was intravenously administered (iv) to the tail veins of the above-mentioned mice.
One week after, blood was collected from ophthalmic venous plexus of the mice with a capillary, and the mice were divided into the following four groups (six mice per group) based on the measured blood glucose levels such that the average blood glucose levels of the groups were equal to one another as follows. […]

Substance: insulin
- blood glucose level as ratio to the non-treated control group: up to 60%

From patent US20220218765A1, “ASSISTANT AGENT FOR ASSISTING INTRODUCTION INTO LIVING BODY AND METHOD OF UTILIZING THE SAME” (SHINBIOSIS CORPORATION, priority 2019, published 2022)
